O=C(Nc1ccccc1-c1ccc(Cl)cc1)c1cccnc1Cl
solubility (mole fraction)
Conditions	288.15 K	293.15 K	298.15 K	303.15 K	308.15 K	313.15 K
in ethanol	0.00163	0.00194	0.0023	0.00282	0.00346	0.00428
in ethyl acetate	0.0076	0.00879	0.0102	0.0117	0.0141	0.0168
in isopropanol	0.000816	0.000983	0.00124	0.00162	0.002	0.00251
in methanol	0.00186	0.0022	0.0026	0.00315	0.00394	0.0047
in n-propyl acetate	0.00718	0.00822	0.00943	0.0112	0.0135	0.016

Reference: BigSolDB 2.1
